Activity calls are given as the source filed them. The rule behind the calls is not given here.
How the values were obtained:
A549 [1] = test: Cytotoxicity against human A549 cells assessed as reduction in viable cells after 48 hrs by MTT assay; format: functional, cell-based; settings: A549, 48 h
[2] = Cytotoxicity against human HCT116 cells assessed as reduction in viable cells after 48 hrs by MTT assay; format: functional, cell-based; settings: HCT-116, 48 h
K562 = test: Cytotoxicity against human K562 cells assessed as reduction in viable cells after 48 hrs by MTT assay; format: functional, cell-based; settings: K562, 48 h
KB [3] = test: Cytotoxicity against human KB cells assessed as reduction in viable cells after 48 hrs by MTT assay; format: functional, cell-based
SiHa = test: Cytotoxicity against human SiHa cells assessed as reduction in viable cells after 48 hrs by MTT assay; format: functional, cell-based
HT-29 = test: Cytotoxicity against human HT-29 cells assessed as reduction in viable cells after 48 hrs by MTT assay; format: functional, cell-based; settings: HT-29, 48 h
A549 [4] = test: Induction of apoptosis in human A549 cells assessed as fragmented nuclei at cytotoxic IC50 after 48 hrs by Hoechst 33342 staining based fluorescent microscopic analysis; format: functional, cell-based
KB [5] = test: Induction of apoptosis in human KB cells assessed as membrane blebbing at cytotoxic IC50 after 48 hrs by AO/EB dual staining based fluorescent microscopic analysis; format: functional, cell-based
KB [6] = test: Induction of apoptosis in human KB cells assessed as cell shrinkage at cytotoxic IC50 after 48 hrs by AO/EB dual staining based fluorescent microscopic analysis; format: functional
KB [7] = test: Induction of apoptosis in human KB cells assessed as fragmented nuclei at cytotoxic IC50 after 48 hrs by Hoechst 33342 staining based fluorescent microscopic analysis; format: functional, cell-based
A549 [8] = test: Induction of apoptosis in human A549 cells assessed as detached cells at cytotoxic IC50 after 48 hrs by inverted microscopic analysis; format: functional, cell-based
KB [9] = test: Induction of apoptosis in human KB cells assessed as cell shrinkage at cytotoxic IC50 after 48 hrs by inverted microscopic analysis; format: functional, cell-based
A549 [10] = test: Induction of apoptosis in human A549 cells assessed as cell shrinkage at cytotoxic IC50 after 48 hrs by inverted microscopic analysis; format: functional, cell-based
A549 [11] = test: Induction of apoptosis in human A549 cells assessed as condensed nuclei at cytotoxic IC50 after 48 hrs by Hoechst 33342 staining based fluorescent microscopic analysis; format: functional, cell-based
KB [12] = test: Induction of apoptosis in human KB cells assessed as detached cells at cytotoxic IC50 after 48 hrs by inverted microscopic analysis; format: functional, cell-based
A549 [13] = test: Induction of apoptosis in human A549 cells assessed as cell shrinkage at cytotoxic IC50 after 48 hrs by AO/EB dual staining based fluorescent microscopic analysis; format: functional
A549 [14] = test: Induction of apoptosis in human A549 cells assessed as membrane blebbing at cytotoxic IC50 after 48 hrs by AO/EB dual staining based fluorescent microscopic analysis; format: functional, cell-based
KB [15] = test: Induction of apoptosis in human KB cells assessed as condensed nuclei at cytotoxic IC50 after 48 hrs by Hoechst 33342 staining based fluorescent microscopic analysis; format: functional, cell-based
A549 [16] = test: Induction of apoptosis in human A549 cells assessed as loss of normal nuclear architecture at cytotoxic IC50 after 48 hrs by inverted microscopic analysis; format: functional, cell-based
A549 [17] = test: Induction of apoptosis in human A549 cells assessed as chromosomal condensation at cytotoxic IC50 after 48 hrs by AO/EB dual staining based fluorescent microscopic analysis; format: functional, cell-based
KB [18] = test: Induction of apoptosis in human KB cells assessed as chromosomal condensation at cytotoxic IC50 after 48 hrs by AO/EB dual staining based fluorescent microscopic analysis; format: functional, cell-based
KB [19] = test: Induction of apoptosis in human KB cells assessed as loss of normal nuclear architecture at cytotoxic IC50 after 48 hrs by inverted microscopic analysis; format: functional, cell-based
[20] = Cytotoxicity against human HCT116; format: functional; settings: HCT-116

## COc1ccc(CN2C(=O)[C@@H](Cc3ccc4c(c3)OCO4)[C@H](Cc3ccc4c(c3)OCO4)C2=O)cc1
A549 [1]
  IC50: 45.5 µM
[2]
  IC50: > 100 µM
K562
  IC50: 8.69 µM
KB [3]
  IC50: 9.13 µM
SiHa
  IC50: 33.4 µM
HT-29
  IC50: 72.6 µM

## O=C1OC[C@@H](Cc2ccc3c(c2)OCO3)[C@@H]1Cc1ccc2c(c1)OCO2
A549 [1]
  IC50: 7.86 µM
A549 [4]
  Activity: Active
KB [5]
  Activity: Active
KB [6]
  Activity: Active
KB [7]
  Activity: Active
A549 [8]
  Activity: Active
KB [9]
  Activity: Active
[2]
  IC50: 72.6 µM
A549 [10]
  Activity: Active
A549 [11]
  Activity: Active
K562
  IC50: 9.07 µM
KB [12]
  Activity: Active
A549 [13]
  Activity: Active
KB [3]
  IC50: 7.68 µM
A549 [14]
  Activity: Active
KB [15]
  Activity: Active
A549 [16]
  Activity: Active
SiHa
  IC50: 68.4 µM
A549 [17]
  Activity: Active
KB [18]
  Activity: Active
KB [19]
  Activity: Active
HT-29
  IC50: 35.7 µM

## OC[C@@H](Cc1ccc2c(c1)OCO2)[C@@H](CO)Cc1ccc2c(c1)OCO2
A549 [1]
  IC50: 75.5 µM
[2]
  IC50: 85.3 µM
K562
  IC50: 30.2 µM
KB [3]
  IC50: 7.82 µM
SiHa
  IC50: > 100 µM
HT-29
  IC50: > 100 µM

## O=C1[C@@H](Cc2ccc3c(c2)OCO3)[C@H](Cc2ccc3c(c2)OCO3)C(=O)N1Cc1ccccc1
A549 [1]
  IC50: 58.6 µM
[2]
  IC50: 65.4 µM
K562
  IC50: 8.88 µM
KB [3]
  IC50: 7.36 µM
SiHa
  IC50: > 100 µM
HT-29
  IC50: 71.8 µM

## CC(C)CCNC(=O)[C@@H](Cc1ccc2c(c1)OCO2)[C@@H](CO)Cc1ccc2c(c1)OCO2
A549 [1]
  IC50: 8.75 µM
[2]
  IC50: 66.8 µM
K562
  IC50: 48.8 µM
KB [3]
  IC50: 8.94 µM
SiHa
  IC50: 95.8 µM
HT-29
  IC50: 23.8 µM

## O=C(NCCO)[C@@H](Cc1ccc2c(c1)OCO2)[C@@H](CO)Cc1ccc2c(c1)OCO2
A549 [1]
  IC50: > 100 µM
[2]
  IC50: 45.2 µM
K562
  IC50: 87.4 µM
KB [3]
  IC50: 7.96 µM
SiHa
  IC50: 85.2 µM
HT-29
  IC50: 51.1 µM

## COc1cc([C@@H]2c3cc4c(cc3[C@H](O)[C@H]3COC(=O)[C@H]23)OCO4)cc(OC)c1OC [PODOFILOX]
[20]
  IC50: 0.01 µM

## COc1cc([C@@H]2c3cc4c(cc3[C@@H](O[C@@H]3O[C@@H]5CO[C@@H](C)O[C@H]5[C@H](O)[C@H]3O)[C@H]3COC(=O)[C@H]23)OCO4)cc(OC)c1O [ETOPOSIDE]
K562
  IC50: 4.39 µM

## O=C(NCCc1ccccc1)[C@@H](Cc1ccc2c(c1)OCO2)[C@@H](CO)Cc1ccc2c(c1)OCO2
A549 [1]
  IC50: 7.28 µM
[2]
  IC50: 7.83 µM
K562
  IC50: 7.91 µM
KB [3]
  IC50: 7.09 µM
SiHa
  IC50: 57.5 µM
HT-29
  IC50: 58.9 µM

## COc1ccc(CNC(=O)[C@@H](Cc2ccc3c(c2)OCO3)[C@@H](CO)Cc2ccc3c(c2)OCO3)cc1
A549 [1]
  IC50: 6.61 µM
A549 [4]
  Activity: Active
A549 [8]
  Activity: Active
[2]
  IC50: 46.1 µM
A549 [10]
  Activity: Active
A549 [11]
  Activity: Active
K562
  IC50: 8.37 µM
A549 [13]
  Activity: Active
KB [3]
  IC50: 9.17 µM
A549 [14]
  Activity: Active
A549 [16]
  Activity: Active
SiHa
  IC50: 91.5 µM
A549 [17]
  Activity: Active
HT-29
  IC50: 51.1 µM

## O=C1[C@@H](Cc2ccc3c(c2)OCO3)[C@H](Cc2ccc3c(c2)OCO3)C(=O)N1CCc1ccccc1
A549 [1]
  IC50: > 100 µM
[2]
  IC50: 64 µM
K562
  IC50: 9.15 µM
KB [3]
  IC50: 62.6 µM
SiHa
  IC50: 96.3 µM
HT-29
  IC50: 66.5 µM

## OC1OC[C@@H](Cc2ccc3c(c2)OCO3)[C@@H]1Cc1ccc2c(c1)OCO2 (some centres not stated)
A549 [1]
  IC50: 8.3 µM
[2]
  IC50: 45.1 µM
K562
  IC50: 8.66 µM
KB [3]
  IC50: 8.16 µM
SiHa
  IC50: > 100 µM
HT-29
  IC50: 45.2 µM

## CC(C)CCN1C(=O)[C@@H](Cc2ccc3c(c2)OCO3)[C@H](Cc2ccc3c(c2)OCO3)C1=O
A549 [1]
  IC50: > 100 µM
[2]
  IC50: 67.7 µM
K562
  IC50: > 100 µM
KB [3]
  IC50: 7.71 µM
SiHa
  IC50: 89.3 µM
HT-29
  IC50: 66.2 µM

## O=C(O)CC1OC[C@@H](Cc2ccc3c(c2)OCO3)[C@@H]1Cc1ccc2c(c1)OCO2 (some centres not stated)
A549 [1]
  IC50: 52.9 µM
[2]
  IC50: > 100 µM
K562
  IC50: 7.94 µM
KB [3]
  IC50: 73.9 µM
SiHa
  IC50: > 100 µM
HT-29
  IC50: > 100 µM

## COc1cccc(CNC(=O)[C@@H](Cc2ccc3c(c2)OCO3)[C@@H](CO)Cc2ccc3c(c2)OCO3)c1
A549 [1]
  IC50: 7.28 µM
[2]
  IC50: > 100 µM
K562
  IC50: 7.98 µM
KB [3]
  IC50: 80.5 µM
SiHa
  IC50: 25.3 µM
HT-29
  IC50: 25.5 µM

## O=C1[C@@H](Cc2ccc3c(c2)OCO3)[C@H](Cc2ccc3c(c2)OCO3)C(=O)N1Cc1ccc(F)cc1
A549 [1]
  IC50: > 100 µM
[2]
  IC50: > 100 µM
K562
  IC50: > 100 µM
KB [3]
  IC50: 8.95 µM
SiHa
  IC50: > 100 µM
HT-29
  IC50: 72.1 µM

## O=C(NCc1ccc(C(F)(F)F)cc1)[C@@H](Cc1ccc2c(c1)OCO2)[C@@H](CO)Cc1ccc2c(c1)OCO2
A549 [1]
  IC50: > 100 µM
[2]
  IC50: > 100 µM
K562
  IC50: 8.86 µM
KB [3]
  IC50: 19.2 µM
SiHa
  IC50: 73.7 µM
HT-29
  IC50: 64.9 µM

## O=C(NCc1ccc(F)cc1)[C@@H](Cc1ccc2c(c1)OCO2)[C@@H](CO)Cc1ccc2c(c1)OCO2
A549 [1]
  IC50: 8.94 µM
[2]
  IC50: 34.1 µM
K562
  IC50: 7.76 µM
KB [3]
  IC50: 33.8 µM
SiHa
  IC50: 80 µM
HT-29
  IC50: 24.6 µM

## O=C(NCc1c[nH]c2ccccc12)[C@@H](Cc1ccc2c(c1)OCO2)[C@@H](CO)Cc1ccc2c(c1)OCO2
A549 [1]
  IC50: > 100 µM
KB [5]
  Activity: Active
KB [6]
  Activity: Active
KB [7]
  Activity: Active
KB [9]
  Activity: Active
[2]
  IC50: > 100 µM
K562
  IC50: > 100 µM
KB [12]
  Activity: Active
KB [3]
  IC50: 6.38 µM
KB [15]
  Activity: Active
SiHa
  IC50: > 100 µM
KB [18]
  Activity: Active
KB [19]
  Activity: Active
HT-29
  IC50: 52.1 µM

## O=C(NCc1ccccc1)[C@@H](Cc1ccc2c(c1)OCO2)[C@@H](CO)Cc1ccc2c(c1)OCO2
A549 [1]
  IC50: 10.8 µM
[2]
  IC50: 93.5 µM
K562
  IC50: 8.6 µM
KB [3]
  IC50: 9.16 µM
SiHa
  IC50: > 100 µM
HT-29
  IC50: 68 µM

Reference: ChEMBL document CHEMBL3779877, “Anticancer activity studies of cubebin isolated from Piper cubeba and its synthetic derivatives” (Bioorg Med Chem Lett, 2016)
